Columns and labels:
AiWssI^ΔN [1] = target: T1, AiWssI^ΔN (Achromobacter insuavis, UniProt A0A6J5I893); assay: HTS MU-Ac fluorescence esterase dose-response assay; format: biochemical; conditions: MU-Ac as esterase substrate
Description: Large-scale HTS was conducted at the SPARC BioCentre Drug Discovery (Hospital for Sick Children, Toronto, Canada) with a subset of the Chembridge DIVERset library collection (as well as 135 manually selected compounds based on success against other SGNH enzymes) in a 384-well format. The assay was performed in singlet during the primary screen of the entire compound list and in triplicate for a follow-up confirmatory screen. Reaction setups for both screens were conducted with 50 mM sodium phosphate buffer (pH 6.5), 3 μM AiWssI^ΔN and 0.5 mM MU-Ac (final concentration of 5% [v/v] dimethyl sulfoxide) using a Thermo MultiDrop Combi Reagent Dispenser. The reaction was initiated by the addition of 20 μM of the test compounds using an Echo 550 acoustic dispenser (Labcyte). Fluorescence was monitored with a SynergyNeo microplate reader (BioTek) using excitation and emission wavelengths of 365 and 450 nm, respectively, for approximately 45 min alongside appropriate negative and positive controls. […] The hits remaining after the primary and confirmatory screening were examined further to identify possible PAINS, which could result in false-positive results ([91]). Further refinement of the lead candidates was also conducted by assessing the fluorescence quenching potential of lead compound hits by assaying the quenching potential of different compound concentrations (10.1 μM and/or 50.5 μM) against the fluorescence of 4-methylumbeliferone (247 μM) to reveal any potential false positives that were not actually because of AiWssI^ΔN activity. All fluorescence readings were normalized using the following equation to determine the percentage of quenching ([92]): NormalizedFlouresence=Fobs−μFmin/μFmax−μFminx100% In the aforementioned formula, Fobs is the sample fluorescence value, μFmin is the mean fluorescence value of the negative controls, and μFmax is the mean fluorescence value of the positive controls.
(§1) All inhibitor compounds for confirmatory assays were purchased from Enamine Ltd, with the exception of compound 1 (Santa Cruz Biotechnology, Inc), Compounds 2 and 7 (Molport via Maybridge Ltd and Vitas M Chemical Ltd, respectively) and compound 6 (Mcule, Inc). The dose–response curves were generated using either CDD Vault Analysis Software (Collaborative Drug Discovery, Inc) or GraphPad Prism, version 8.4.3. Inhibition constants (Ki) were calculated using the Cheng–Prusoff equation for competitive inhibition that is calculated using the KM of the uninhibited enzyme, the substrate concentration (S) at which the IC50 values were calculated, and the IC50 value of the inhibitor ([92]): Ki=IC50/(S/KM+1)

AiWssI^ΔN [2] = target: T1, AiWssI^ΔN; format: biochemical; conditions: 1 h incubation with reagent (1 mM PMSF, 5 mM MSF, 5 mM EDTA, 0.1 mM E-64, 20 μM Pepstatin A); 6 mM pNP-Ac, pH 7
Description: (§2) The enzymatic rate of the WssI^ΔN proteins was measured using chromogenic assays in a 50 mM sodium phosphate-buffered (pH 7) solution, with WssI^ΔN (3 μM unless specified otherwise) and were initiated by the addition of pNP-Ac to a final concentration of 6 mM (dissolved in 5% [v/v] ethanol). Assay samples and corresponding controls (i.e., containing no WssI^ΔN and/or substrate) were run in quadruplicate, and the progress of the reaction was monitored at 405 nm (Cytation5) for 30 min in 1 min intervals following a 5 s initial linear shake to mix contents thoroughly. These conditions were deemed standard assay conditions for subsequent trials except where modifications are noted. The activity assay to determine optimal pH and buffer type was performed with 2-(N-morpholino)ethanesulfonic acid over pH ranges of 5.5 to 6.5, sodium phosphate for pH 6.5 to 7.5, and Tris for the final range of 7.5 to 9.25. In addition, standard assay conditions were modified by incorporating various inhibitors and common reducing agents to determine effects on WssI^ΔN activity. […] To test the effects of the absence of DTT, trials were conducted where DTT was removed from all purification and dialysis buffers, unless mentioned otherwise. Data are either reported in specific activity as units of esterase activity (i.e., the amount of enzyme required to release 1 μmol of p-nitrophenol per min^−1 per mg of protein^−1) or as percent residual activity when compared with the WssI^ΔN controls (i.e., containing no inhibitors).

PfWssI^ΔN = target: T2, PfWssI^ΔN (Pseudomonas fluorescens, UniProt Q8RSY4); format: biochemical; conditions: 1 h incubation with reagent (1 mM PMSF, 5 mM MSF, 5 mM EDTA, 0.1 mM E-64, 20 μM Pepstatin A); 6 mM pNP-Ac, pH 7
T2 sequence (Q8RSY4 92-374): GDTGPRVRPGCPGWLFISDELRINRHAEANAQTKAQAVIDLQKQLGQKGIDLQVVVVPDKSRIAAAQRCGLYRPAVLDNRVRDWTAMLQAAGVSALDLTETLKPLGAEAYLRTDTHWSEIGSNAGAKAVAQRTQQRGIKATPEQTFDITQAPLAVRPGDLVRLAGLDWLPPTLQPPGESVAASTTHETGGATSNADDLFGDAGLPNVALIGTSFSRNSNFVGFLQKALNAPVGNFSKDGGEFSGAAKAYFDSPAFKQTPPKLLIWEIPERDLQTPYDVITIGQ
Description: as §2

AiWssI^ΔN [3] = target: T1, AiWssI^ΔN; assay: pNP-Ac cleavage in the presence of oligosaccharide acceptors; format: biochemical; conditions: 1 mM oligosaccharide, 6 mM pNP-Ac, 2 μM enzyme; for Specific activity of AiWssI^ΔN with acceptor relative to no acceptor control: t test; for Increase in AiWssI^ΔN activity versus reaction without celloacceptors: 30 min, 23 °C
Description: Acetyltransfer by WssI was performed under the same esterase assay protocol outlined previously, but with the addition of cellulose or chitin oligosaccharides (1 mM) as the acceptor in the presence of either pNP-Ac (6 mM) or acetyl-CoA (4 mM) as the acetyl donor ([…]). Assessment of acetyltransfer was first monitored indirectly (absorbance at 405 nm wavelength) by observing differences in pNP liberation rates in the presence and absence of the polysaccharide acceptors. Later to confirm the acetylated products, reactions performed with pNP-Ac and acceptor polysaccharides were subjected to solid-phase extraction of the carbohydrate reaction products followed by detection with MS (as outlined later). Reactions utilizing acetyl-CoA as the donor were subjected to LC–MS analyses. All model fitting and statistical analyses were performed using GraphPad Prism, version 8.4.3.

AiWssI^ΔN [4] = target: T1, AiWssI^ΔN; assay: Follow-up standard MU-Ac esterase assay (dose-response); format: biochemical; conditions: for IC50: MU-Ac (0.5 mM) as esterase substrate, read-out: Second MU-Ac IC50; for Ki: MU-Ac as esterase substrate, Cheng-Prusoff, competitive inhibition, read-out: Second MU-Ac Ki
Description: (§3) The fluorescence substrate, MU-Ac, was also tested as a substrate of WssI^ΔN for its amenability to the planned high-throughput analyses (see later). Reaction setups were exactly the same as that for pNP-Ac, with the exceptions of the assay buffer (50 mM sodium phosphate, 150 mM NaCl, 1 mM DTT, pH 7), MU-Ac as the acetyl donor (final concentration of 0.5 mM along with 5% [v/v] dimethyl sulfoxide, as this was the solvent for MU-Ac), and the assay was performed in fluorescence compatible microplates (Grenier BioOne) and monitored with excitation and emission wavelengths of 365 and 450 nm, respectively for 60 min.
as §1

[5] = test system: CC(=O)Oc1ccc([N+](=O)[O-])cc1; assay: O-acetylesterase Michaelis-Menten kinetics; format: biochemical, Achromobacter insuavis; conditions: other: AiWssI^ΔN, acetyl donor substrate, pH 7
Description: as §2, §3
(§4) Kinetic assays were performed using the same standard assay conditions for esterase reactions outlined previously, but with acetyl donor pNP-Ac concentrations ranging from 0 to 10 mM and MU-Ac concentrations between 0 and 8 mM. Michaelis–Menten parameters, such as KM and kcat, were calculated from the kinetic curves according to a nonlinear regression analysis of plots of initial velocity as a function of pNP-Ac or MU-Ac concentration using GraphPad Prism, version 8.4.3 (GraphPad Sofware, Inc).

[6] = test system: CC(=O)Oc1ccc2c(C)cc(=O)oc2c1; assay: O-acetylesterase Michaelis-Menten kinetics; format: biochemical, Achromobacter insuavis; conditions: other: AiWssI^ΔN, acetyl donor substrate, pH 7
Description: as §2, §3, §4

[7] = substrate: CC(=O)Oc1ccc([N+](=O)[O-])cc1; assay: O-acetylesterase Michaelis-Menten kinetics; format: biochemical, Pseudomonas fluorescens; conditions: other: PfWssI^ΔN, acetyl donor substrate, pH 7
Description: as §2, §3, §4

[8] = substrate: CC(=O)Oc1ccc2c(C)cc(=O)oc2c1; assay: O-acetylesterase Michaelis-Menten kinetics; format: biochemical, Pseudomonas fluorescens; conditions: other: PfWssI^ΔN, acetyl donor substrate, pH 7
Description: as §2, §3, §4

T1 sequence (A0A6J5I893 entry or part of it, stated change not applied): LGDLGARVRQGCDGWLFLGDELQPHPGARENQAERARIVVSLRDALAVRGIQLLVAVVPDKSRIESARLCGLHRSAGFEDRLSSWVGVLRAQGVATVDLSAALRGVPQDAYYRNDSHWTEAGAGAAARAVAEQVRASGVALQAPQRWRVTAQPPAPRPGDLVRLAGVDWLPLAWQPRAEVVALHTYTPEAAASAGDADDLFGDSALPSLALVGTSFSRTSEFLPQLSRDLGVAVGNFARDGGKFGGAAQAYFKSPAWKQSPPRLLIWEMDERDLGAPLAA

Molecule: Cc1nc(N2CCCCC2)sc1/C=N/Nc1ccc(C(=O)O)cc1 [Compound 8, 4-[(2E)-2-{[4-Methyl-2-(piperidin-1-yl)-1,3-thiazol-5-yl]methylidene}hydrazin-1-yl]benzoic acid]
- IC50 (AiWssI^ΔN [1]): 90.3 µM

Molecule: O=S(=O)(F)Cc1ccccc1 [PMSF]
- Residual activity AiWssI^ΔN (AiWssI^ΔN [2]): 106.3 ± 6.8%
- Residual activity PfWssI^ΔN (PfWssI^ΔN): 103.2 ± 4.2%

Molecule: O=C[C@H](O)[C@@H](O)[C@H](O[C@@H]1O[C@H](CO)[C@@H](O)[C@H](O)[C@H]1O)[C@H](O)CO [cellobiose]
- Specific activity of AiWssI^ΔN with acceptor relative to no acceptor control (AiWssI^ΔN [3]): Significant increases in activity

Molecule: OC[C@H]1O[C@@H](O[C@H]2[C@H](O)[C@@H](O)[C@H](O[C@H]3[C@H](O)[C@@H](O)[C@H](O[C@H]4[C@H](O)[C@@H](O)[C@H](O[C@H]5[C@H](O)[C@@H](O)[C@H](O[C@H]6[C@H](O)[C@@H](O)C(O)O[C@@H]6CO)O[C@@H]5CO)O[C@@H]4CO)O[C@@H]3CO)O[C@@H]2CO)[C@H](O)[C@@H](O)[C@@H]1O (some centres unmarked) [cellohexaose]
- Increase in AiWssI^ΔN activity versus reaction without celloacceptors (AiWssI^ΔN [3]): 31%
- Specific activity of AiWssI^ΔN with acceptor relative to no acceptor control (AiWssI^ΔN [3]): Significant increases in activity

Molecule: CCOC(=O)NC(=O)/C(C#N)=C/c1ccc(N(C)C)cc1 [Compound 2, Ethyl N-[(2E)-2-cyano-2-{[4-(dimethylamino)-phenyl]methylidene}acetyl]carbamate]
- IC50 (AiWssI^ΔN [1]): 60.2 µM
- IC50 (AiWssI^ΔN [4]): 22.6 µM
- Ki (AiWssI^ΔN [4]): 12 µM

Molecule: OC[C@H]1O[C@@H](O[C@H]2[C@H](O)[C@@H](O)[C@H](O[C@H]3[C@H](O)[C@@H](O)[C@H](O[C@H]4[C@H](O)[C@@H](O)C(O)O[C@@H]4CO)O[C@@H]3CO)O[C@@H]2CO)[C@H](O)[C@@H](O)[C@@H]1O (some centres unmarked) [cellotetraose]
- Specific activity of AiWssI^ΔN with acceptor relative to no acceptor control (AiWssI^ΔN [3]): Significant increases in activity

Molecule: OC[C@H]1O[C@@H](O[C@H]2[C@H](O)[C@@H](O)[C@H](O[C@H]3[C@H](O)[C@@H](O)[C@H](O[C@H]4[C@H](O)[C@@H](O)[C@H](O[C@H]5[C@H](O)[C@@H](O)C(O)O[C@@H]5CO)O[C@@H]4CO)O[C@@H]3CO)O[C@@H]2CO)[C@H](O)[C@@H](O)[C@@H]1O (some centres unmarked) [cellopentaose]
- Increase in AiWssI^ΔN activity versus reaction without celloacceptors (AiWssI^ΔN [3]): 28%
- Specific activity of AiWssI^ΔN with acceptor relative to no acceptor control (AiWssI^ΔN [3]): Significant increases in activity

Molecule: OC[C@H]1O[C@@H](O[C@H]2[C@H](O)[C@@H](O)[C@H](O[C@H]3[C@H](O)[C@@H](O)C(O)O[C@@H]3CO)O[C@@H]2CO)[C@H](O)[C@@H](O)[C@@H]1O (some centres unmarked) [cellotriose]
- Specific activity of AiWssI^ΔN with acceptor relative to no acceptor control (AiWssI^ΔN [3]): Significant increases in activity

Molecule: O=C1NC(=O)c2ccccc2/C1=C\C=Cc1ccco1 [Compound 5, (4E)-4-[3-(Furan-2-yl)prop-2-en-1-ylidene]-1,2,3,4-tetrahydroisoquino-line-1,3-dione]
- IC50 (AiWssI^ΔN [1]): 51.9 µM

Molecule: CN1CCN(c2ccc(NC(=O)c3cc4sc(Nc5ccccc5)nc4s3)cn2)CC1 [Compound 4, N-[6-(4-Methylpiperazin-1-yl)pyridin-3-yl]-2-(phenylamino)thieno[2,3-days][1,3]thiazole-5-carboxamide]
- IC50 (AiWssI^ΔN [1]): 55.3 µM

Molecule: AiWssI^ΔN (Achromobacter insuavis)
- Km [5]: 3.85 ± 1.07 mM
- kcat [5]: 0.031 ± 0.0035 s⁻¹
- kcat/Km [5]: 8 M⁻¹ s⁻¹
- Km [6]: 0.57 ± 0.24 mM
- kcat [6]: 0.00258 ± 0.00028 s⁻¹
- kcat/Km [6]: 4.5 M⁻¹ s⁻¹

Molecule: CC(=O)Nc1ccc(S(=O)(=O)Nc2ccc([N+](=O)[O-])cc2)cc1 [Compound 7, N-{4-[(4-Nitrophenyl)sulfamoyl]phenyl}acetamide]
- IC50 (AiWssI^ΔN [1]): 100 µM

Molecule: CN1/C(=C/C(=O)Cn2cc(S(=O)(=O)N3CCCC3)ccc2=O)C(C)(C)c2ccccc21 [Compound 6, 1-{2-Oxo-3-[(2E)-1,3,3-trimethyl-2,3-dihydro-1H-indol-2-ylidene]propyl}-5-(pyrrolidine-1-sulfonyl)-1,2-dihydropyridin-2-one]
- IC50 (AiWssI^ΔN [1]): 71.9 µM

Molecule: Cn1cccc1/C=C(/C#N)c1nnc(-c2ccccc2)n1C [Compound 3, (2Z)-3-(1-Methyl-1H-pyrrol-2-yl)-2-(4-methyl-5-phenyl-4H-1,2,4-triazol-3-yl)-prop-2-enenitrile]
- IC50 (AiWssI^ΔN [1]): 85.3 µM
- IC50 (AiWssI^ΔN [4]): 41.4 µM
- Ki (AiWssI^ΔN [4]): 22.1 µM

B1: PfWssI^ΔN (Pseudomonas fluorescens) (protein)
chain: T2 sequence (Q8RSY4 92-374)
- Km [7]: 2.41 ± 0.77 mM
- kcat [7]: 0.0312 ± 0.0034 s⁻¹
- kcat/Km [7]: 13 M⁻¹ s⁻¹
- Km [8]: 0.34 ± 0.10 mM
- kcat [8]: 0.00162 ± 0.00016 s⁻¹
- kcat/Km [8]: 4.8 M⁻¹ s⁻¹

Reference: paper PMC10302187, “WssI from the Gram-negative bacterial cellulose synthase is an O-acetyltransferase that acts on cello-oligomers with several acetyl donor substrates” (The Journal of Biological Chemistry, 2023)
